Each structure is given as a SMILES string.

The values that follow come from patent publication US10653676B2 (Dana-Farber Cancer Institute, Inc., priority 2010, dated 2020).

For the assay, the target named is T1, USP1/UAF1 complex (Homo sapiens, UniProt O94782, G670A/G671A).
T1 construct: This modified full length USP1 clone was PCR amplified and subcloned into pFastBac-HT vectors; His tag (N); made in house; host or cells: Sf9 insect cells (baculovirus)
The experiment in a line: high throughput screening for inhibitors of USP1 deubiquitinating activity. The class given is biochemical. To be noted: library of approximately 150,000 compounds. As to the method: The ubiquitin-Rho based enzyme assay for high throughput screening was established in a 384-well format. The reaction buffer containing and USP1/UAF1 complex were added in 384 well plates using automated liquid handling robot-Bio-Tek Microfill (Bio-Tek Instrments Inc., VT), followed by addition of the compounds (in DMSO) from the compound library plates to wells using a pin transfer robotic system at a final concentration of 10 μM. The reaction was composed of 0.1 nM purified USP1/UAF complex, 75 nM ubiquitin Rhodamine (Ub-Rho, Boston Biochem, U-600) and 2 μM ubiquitin. Fluorescence was monitored in a FluoStar Galaxy Fluorometer (BMG Labtech). Fluorescence emission at 535 nm (λex=485 nm) was measured in an automated plate reader Envision 2 (Perkin Elmer, Mass.).
In order to develop a highly sensitive assay with easy readout for high throughput detection, the fluorogenic compound Ubiquitin-7-amido-4-methylcoumarin (AMC-Ub, Boston Biochem) was used as a substrate for USP1/UAF1 enzyme complex. USP1 catalyzes the cleavage of AMC-Ub, releasing free AMC moiety, which leads to increase in fluorescence emission at 460 nm (λex=380 nm). Dang et al. (1998) Biochemistry 37:1868-79. Catalytic activity towards AMC-Ub increases 35 fold compared to USP1 enzyme alone. Initial enzyme assay development was performed in 96-well plates with 100 μl reaction volume containing 20 mM HEPES-KOH, 0.1 mg/ml ovalbumin (Sigma), 0.5 mM EDTA, and 10 mM DTT. 2.5 nM USP1/UAF1 enzyme complex was mixed with the reaction buffer, incubated at 37° C. for 10 minutes and then 0.3 μM AMC-Ub was added. Fluorescence was measured using a Fluostar Galaxy Fluorometer (BMG Labtech Inc.).
Once the preliminary enzyme assay was established in 96-well format, it was optimized for 384 wells for high throughput screening (HTS) of inhibitors. The major points to be considered were the volume of the reaction and amount of AMC-Ub substrate to be used in the assay. Since the price of AMC-Ub is very high, in order to make it a feasible assay for HTS, lowest workable amount of the AMC conjugate was used. Reaction volume was minimized to 30 μl in order to meet the recommendation of ICCB-L screening facility (Harvard). In the preliminary optimization experiment, a series of pilot experiments were performed with varying AMC-Ub concentrations (0.025 μM to 0.2 μM), along with the varying concentration of USP1/UAF1 complex (0.2 nM to 3.2 nM). […] After incubating the enzyme and buffer at 37° C. for 10 minutes, AMC-Ub was added and fluorescence emission at 460 nm (λex=380 nm) was measured in an automated plate reader Envision 2 (Perkin Elmer). Fluorescence reading for all time points up to one hour was noted and the data for different AMC-Ub concentration range was plotted with each USP1/UAF1 enzyme complex concentration. […]

T1 sequence (O94782 whole entry G670A/G671A): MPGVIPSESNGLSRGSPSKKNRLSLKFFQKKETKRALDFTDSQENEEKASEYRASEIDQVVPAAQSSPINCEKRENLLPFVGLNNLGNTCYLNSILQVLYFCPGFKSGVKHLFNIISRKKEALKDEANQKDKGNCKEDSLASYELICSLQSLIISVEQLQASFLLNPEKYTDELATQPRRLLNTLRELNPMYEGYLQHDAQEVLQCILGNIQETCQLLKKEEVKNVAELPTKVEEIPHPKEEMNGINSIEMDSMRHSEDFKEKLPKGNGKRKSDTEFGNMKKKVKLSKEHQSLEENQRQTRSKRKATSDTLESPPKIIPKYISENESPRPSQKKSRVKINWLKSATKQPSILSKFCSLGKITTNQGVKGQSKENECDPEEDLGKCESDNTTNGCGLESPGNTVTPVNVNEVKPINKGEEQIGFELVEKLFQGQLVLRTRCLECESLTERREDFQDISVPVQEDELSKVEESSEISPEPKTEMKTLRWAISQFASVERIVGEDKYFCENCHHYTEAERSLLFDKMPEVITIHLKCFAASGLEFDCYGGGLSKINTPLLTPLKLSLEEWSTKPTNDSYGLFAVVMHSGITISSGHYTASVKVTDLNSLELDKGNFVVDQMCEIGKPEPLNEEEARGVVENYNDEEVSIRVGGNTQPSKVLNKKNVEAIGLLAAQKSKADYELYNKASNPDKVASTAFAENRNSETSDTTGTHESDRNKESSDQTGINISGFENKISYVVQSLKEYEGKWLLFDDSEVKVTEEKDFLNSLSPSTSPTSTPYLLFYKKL
T1 sequence (Q8TAF3 whole entry partner): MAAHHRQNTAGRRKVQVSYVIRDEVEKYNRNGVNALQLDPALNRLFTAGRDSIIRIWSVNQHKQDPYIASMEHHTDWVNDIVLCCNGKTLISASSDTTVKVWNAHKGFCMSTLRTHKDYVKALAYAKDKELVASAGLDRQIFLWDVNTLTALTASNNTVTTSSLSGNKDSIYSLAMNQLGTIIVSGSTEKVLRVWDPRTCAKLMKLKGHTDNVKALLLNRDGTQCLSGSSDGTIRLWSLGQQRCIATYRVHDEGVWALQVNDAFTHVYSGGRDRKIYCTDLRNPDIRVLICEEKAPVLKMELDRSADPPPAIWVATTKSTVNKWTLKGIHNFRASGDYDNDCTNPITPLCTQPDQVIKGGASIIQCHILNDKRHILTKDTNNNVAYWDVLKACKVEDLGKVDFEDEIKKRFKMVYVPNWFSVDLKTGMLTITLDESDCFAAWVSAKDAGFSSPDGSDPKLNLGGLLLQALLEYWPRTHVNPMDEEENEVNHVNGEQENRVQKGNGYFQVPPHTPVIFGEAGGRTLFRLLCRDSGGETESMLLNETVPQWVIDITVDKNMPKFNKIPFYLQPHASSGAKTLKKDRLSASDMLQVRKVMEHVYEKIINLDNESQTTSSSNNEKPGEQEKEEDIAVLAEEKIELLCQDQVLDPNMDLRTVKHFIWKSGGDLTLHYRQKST

On to `O=C1c2ccccc2C(=O)c2oc(-c3ccc(F)cc3)nc21` [Formula IV (527)], for which the “identified as inhibitor of USP1 in initial in vitro screening” value is “inhibitors of USP1”.
